According to PubChem BioAssay (NCI):
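In this assay, cells in 96-well plates receive the compound at five concentrations for 48 hours. Endpoints are linearly interpolated between the surrounding concentrations. GI50 = concentration required for 50% inhibition of growth. Definition used: TGI = concentration required for complete inhibition of growth.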

Experiments:
Experiment in all cases: NCI anticancer screen, dose series, 48 h
[1] = test system: CAKI-1 renal
[2] = test system: DU-145 prostate
[3] = test system: HCT-15 colon
[4] = test system: HL-60(TB) leukemia
[5] = test system: HOP-92 NSCLC
[6] = test system: IGROV1 ovarian
[7] = test system: NCI/ADR-RES ovarian
[8] = test system: SF-268 CNS
[9] = test system: SK-MEL-2 melanoma
[10] = test system: UO-31 renal

In the case of `CCCCCCCCCCC(C[N+](C)(C)C/C=C/c1ccccc1)C(O)c1ccccc1` (stereo not given), the GI50 [1] is reported as 12200 nM, the TGI [1] is reported as 34100 nM and the GI50 [2] is reported as 1760 nM. It also gave a TGI [2] of 3370 nM, a GI50 [3] of 2290 nM and a TGI [3] of 6310 nM. It also gave a GI50 [4] of 1100 nM, a TGI [4] of 2630 nM and a GI50 [5] of 435 nM. For the same compound, the TGI [5] was 2080 nM, the GI50 [6] was 999 nM and the TGI [6] was 2540 nM. It also gave a GI50 [7] of 7500 nM, a TGI [7] of 34600 nM and a GI50 [8] of 1470 nM. It also gave a TGI [8] of 3200 nM, a GI50 [9] of 1750 nM and a TGI [9] of 3240 nM. It also gave a GI50 [10] of 2090 nM and a TGI [10] of 4510 nM.
